Source: PubChem BioAssay (NCI)
Several values for one entry are separate records, joined by “and”; a condition that tells them apart may be missing. Equal values may be shown once.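 These data come from cells grown in 96-well plates and exposed to compound for 48 hours at five concentrations. The concentration for 50% growth inhibition is given as GI50. TGI: total growth inhibition.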

How the values were obtained:
Assay in all cases: NCI anticancer screen, dose series, 48 h
HCT-116 colon = system: HCT-116 colon
A549 NSCLC = system: A549 NSCLC
K-562 leukemia = system: K-562 leukemia
SK-OV-3 ovarian = system: SK-OV-3 ovarian
UACC-62 melanoma = system: UACC-62 melanoma
MDA-MB-435 = system: MDA-MB-435
CAKI-1 renal = system: CAKI-1 renal
T-47D breast = system: T-47D breast
HOP-92 NSCLC = system: HOP-92 NSCLC
SF-539 CNS = system: SF-539 CNS

| Compound | GI50 (HCT-116 colon) [nM] | TGI (HCT-116 colon) | GI50 (A549 NSCLC) [nM] | TGI (A549 NSCLC) | GI50 (K-562 leukemia) [nM] | TGI (K-562 leukemia) | GI50 (SK-OV-3 ovarian) [µM] | TGI (SK-OV-3 ovarian) [µM] | GI50 (UACC-62 melanoma) [nM] | TGI (UACC-62 melanoma) [µM] | GI50 (MDA-MB-435) [nM] | TGI (MDA-MB-435) [µM] | GI50 (CAKI-1 renal) [nM] | TGI (CAKI-1 renal) [µM] | GI50 (T-47D breast) [nM] | TGI (T-47D breast) | GI50 (HOP-92 NSCLC) [nM] | TGI (HOP-92 NSCLC) | GI50 (SF-539 CNS) [nM] | TGI (SF-539 CNS) |
| --- | --- | --- | --- | --- | --- | --- | --- | --- | --- | --- | --- | --- | --- | --- | --- | --- | --- | --- | --- | --- |
| COc1ccc(NC(=O)c2sc3nc(C)c(C(=O)/C=C/c4cccc(OC)c4)cc3c2N)cc1 | 773 | 1.7 µM | 1180 | 9.22 µM | 1430 | > 50 µM | 6.71 | 46 | 1390 | 4.11 | 1350 | 6.78 | 1960 | 6.99 | 1460 | > 50 µM | 1510 | 9.99 µM | 1310 | 3.49 µM |
| Cc1c(N)nc(C(CC(N)=O)NCC(N)C(N)=O)nc1C(=O)NC(C(=O)NC(C)C(O)C(C)C(=O)NC(C(=O)NCCc1nc(-c2nc(C(=O)NCCCNC(C)c3ccccc3)cs2)cs1)C(C)O)C(OC1OC(CO)C(O)C(O)C1OC1OC(CO)C(O)C(OC(N)=O)C1O)c1cnc[nH]1 (stereo unspecified) | 1760 | 49.4 µM and > 100 µM | 630 | 50 µM and > 100 µM | 11800 | 50 µM and > 100 µM |  | 45.6 |  | 8.82 | 76000 | > 100 | 2000 |  | 23800 | 50 µM and > 100 µM | 227 | 3.51 µM and 25.8 µM | 37.6 | 0.476 µM and 0.681 µM |
| O=CN1N=C(c2cccc(Nc3ccnc4cc(Cl)ccc34)c2)CC1c1ccccc1 (stereo unspecified) | 364 | 1.63 µM | 501 | > 26.2 µM | 301 | 10.5 µM | 0.363 | 14.3 | 444 | 21.8 | 88.9 | 0.432 | 348 | 7.54 | 381 | 9.59 µM | 209 | 0.787 µM | 370 | 2.49 µM |
| COc1ccc(/C=C2\SC(=Nc3ccccc3)NC2=O)cc1 | 3400 | 12.9 µM | 4740 | 26.7 µM | 2310 | > 100 µM | 12.6 | 46.8 | 4790 | > 100 | 2140 | 5.34 | 3980 | > 100 | 6460 | > 100 µM | 7640 | 53.5 µM | 3600 | 15.1 µM |
| Cn1c(-c2ccccc2)c(/C=C/C2=[N+](C)c3ccccc3C2(C)C)c2ccccc21 | 593 | 7.11 µM | 1730 | 12.8 µM | 128 | 5.3 µM | 2.38 | 8.03 | 600 | 3.97 | 486 | 4.02 | 1810 | 5.08 | 340 | 9.07 µM | 616 | 4.64 µM | 2590 | 14.2 µM |
| CN(C)CCCC1(c2ccc(F)cc2)OCc2cc(-c3cc4ccccc4s3)ccc21 (stereo unspecified) | 1670 | 3.22 µM | 1730 | 3.19 µM | 1680 | 3.3 µM | 1.66 | 3.04 | 1790 | 3.24 | 1830 | 3.32 | 1290 | 2.59 | 2040 | 3.75 µM | 1330 | 2.95 µM | 1700 | 3.09 µM |
| Clc1ccc2nc(CI)c(CI)nc2c1 | 2530 |  | 17800 | 38.7 µM | 1530 | 7.86 µM | 23.1 | > 58 | 4730 | 17.2 | 3160 | 14.4 | 9560 | 24.9 | 2600 | 8.28 µM | 3000 | 8.3 µM | 2460 | 6.31 µM |
| Cc1c(Cl)cccc1NC(=O)/C=C/c1ccccc1 |  | > 100 µM |  | > 100 µM |  | > 100 µM |  | > 100 |  | > 100 |  | > 100 |  | 73.3 |  | > 100 µM |  | > 100 µM |  | > 100 µM |
| C[C@]12CC[C@H]3[C@@H](CC4SC(N)=NC45C/C(=N/NC(N)=O)CC[C@]35C)[C@@H]1CCC2=O (stereo partly specified) | 2090 | 4.35 µM | 2020 | 3.89 µM | 1810 | 5.08 µM | 6.21 | 22.3 | 1630 | 3.13 | 1330 | 2.7 | 1770 | 3.64 | 1860 | 3.8 µM | 1510 | 3.16 µM | 2050 | 5.23 µM |
| C[n+]1c2ccccc2nc2ccccc21 | 820 | 2.89 µM | 2930 | 19.9 µM | 1860 | > 32.4 µM | 4.59 | 18.1 | 1410 | 2.99 | 516 | 1.75 | 2090 | 6.42 | 1070 | 2.72 µM | 1500 | 4.71 µM | 1680 | 4.76 µM |
| O=C(/C=C1\C(=O)N(Cc2ccccc2)c2ccccc21)c1ccc(OCCN2CCCCC2)cc1 | 1300 | 2.67 µM | 8420 | 21.6 µM | 1840 | 6.53 µM | 15 | 28.2 | 1830 | 3.62 | 2490 | 9.33 | 1780 | 4.02 | 1600 | 3.4 µM | 1360 | 2.77 µM | 2070 | 4.14 µM |
